In US7338778B2, “Luminescent method for determining cell oxygen consumption” (Becton, Dickinson and Company, priority 1991, dated 2008):
In brackets after ≈: the same amount, converted by molar mass.

Assays:
Format in all cases: cell-based
[1] = tested on: Ps. aeruginosa (BDMS Culture collection #N111); experiment: Overnight microdilution antimicrobial susceptibility test (reference MIC); conditions: Pseudomonas aeruginosa
[2] = tested on: E. coli (ATCC #11775); experiment: Effect of open and closed systems on oxygen measurements with cefuroxime (Example 11); conditions: 4 and 8 ug/ml, 5 hours, 37° C.
Protocol: A 96 well indicator microtiter tray was produced substantially as in Example 1. Duplicate wells in the tray were supplemented with the antibiotic cefuroxime in the concentration range of 0.25 to 32 ug/ml. One hundred and fifty microliters of a suspension of E. coli (ATCC #11775) was added to the wells to yield about 3×10^7 CFU/ml. One of each duplicate well was overlaid with mineral oil to inhibit diffusion of oxygen into the wells, the other duplicate was left open to the air. […] This difference is due, presumably to the time lag needed for the antibiotic to affect the organism; it is believed that during this time the oxygen is brought to an artificially low level by the ongoing metabolic activity of the organisms.

[3] = tested on: Ps. aeruginosa (BDMS Culture collection #N111); experiment: Visual reading of indicator tray fluorescence without a fluorometer (Example 13); conditions: 1×10^7 CFU/ml, 4 hours at 37° C., UV transilluminator
Protocol: (§1) The trays were incubated for 4 hours at 37° C. and subsequently placed on the stage of an ultraviolet transilluminator (#TX-365A, Spectronics Corp., Westbury, N.Y.) which served as an excitation source.

[4] = tested on: E. coli (ATCC #25922); experiment: as above; conditions: E. coli #25922, 1×10^7 CFU/ml, 4 hours at 37° C., UV transilluminator
Protocol: as §1

[5] = tested on: E. coli (ATCC #25922); experiment: Effect of antibiotics on oxygen consumption of E. coli, Ru(BiPy)3Cl2 indicator tray (Example 9); conditions: for Relative Fluorescence at 4 hrs.: 1×10^7 CFU/ml, 37° C.
Protocol: A 96 well Microtiter tray was produced essentially as in Example 1, except that tris-(2,2′ bipyridyl)-ruthenium (II) chloride hexahydrate (Aldrich Chemical Company, Milwaukee, Wis.) [Ru(BiPy)3Cl2] was substituted for Ru(DPP)3Cl2 in the silicone mixture. A second tray containing 9,10-diphenyl anthracene (DPA) was also prepared. All wells were charged with 150 ul of 1×10^7 CFU/ml E. coli (ATCC #25922) in broth. Table 3 lists the results at 0, 1, 2, 3, and 4 hours after addition of organisms.
(§2) A 0.5 McFarland suspension of E. coli (ATCC #25922) in Broth A (see Example 1) was prepared using an A-Just nephelometer. […] The trays were incubated at 37° C. for 4 hours and their fluorescence measured in a Fluoroskan II fluorometer.

[6] = tested on: E. coli (ATCC #25922); experiment: Effect of antibiotics on E. coli, Ru(DPP)3Cl2 indicator tray (Example 8); conditions: for Relative Fluorescence at 4 hrs.: 1×10^7 CFU/ml, 37° C.
Protocol: as §2
The fluorescent compound tris 4,7-diphenyl-1,10-phenanthroline ruthenium (II) chloride (Ru(DPP)3Cl2) was synthesized using the procedure of Watts and Crosby (J. Am.Chem. Soc. 93, 3184(1971)). A total of 3.6 mg of the compound was dissolved in 2.0 ml dimethyl sulfoxide (D-5879, Sigma Chemical, St. Louis, Mo.) and the resultant solution was then added slowly, with stirring, to 1300 ml silicone rubber forming solution (Water Based Emulsion #3-5024, Dow Corning, Midland, Mich.). A 35 microliter aliquot of the mixture was subsequently dispensed into each well of a 96 well, flat bottom, white microtiter tray (#011-010-7901, Dynatech, Chantilly, Va.), and the system was subsequently cured overnight in a low humidity (less than 25% RH), 60° C. incubator. After curing, the trays were washed by either soaking or by filling and emptying each well several times with each of the following reagents; a) absolute ethanol, b) 0.1 M phosphate buffer pH 7.2, c) hot distilled water (about 45° C.) and d) ambient temperature distilled water.

[7] = tested on: E. coli (ATCC #25922); experiment: Effect of antibiotics on oxygen consumption of E. coli, DPA indicator tray (Example 10); conditions: for Relative Fluorescence at 4 hrs.: 1×10^7 CFU/ml, 37° C.
[8] = tested on: E. coli (ATCC #25922); experiment: Overnight microdilution antimicrobial susceptibility test (reference MIC); conditions: Escherichia coli, ATCC25922; E. coli #25922, overnight microdilution
[9] = all concentrations (0.5 to 8 ug/ml), 4 hours

In the case of `CO/N=C(\C(=O)N[C@@H]1C(=O)N2C(C(=O)O)=C(COC(N)=O)CS[C@H]12)c1ccco1` [Cefuroxime, cefuroxime], the MIC [1] is reported as over 64 µg/mL, the “effect on oxygen consumption by fluorescence as percent of growth control” value ([2]; closed system overlaid with mineral oil) is reported as “did not show an effect on oxygen consumption” and the “susceptibility of organism by fluorescence as percent of growth control” value ([2]; wells with no mineral oil (open to air)) is reported as “sensitive”. For the same compound, the “MIC Visual (lowest concentration of antibiotic to significantly lower the fluorescent emissions)” value [3] was over 64 µg/mL, the “MIC Visual (lowest concentration of antibiotic to significantly lower the fluorescent emissions)” value [4] was 16 µg/mL and the “susceptibility of E. coli by fluorescence counts” value (“susceptibility of E. coli” below) [5, 9] was “resistant”. The “Relative Fluorescence at 4 hrs.” value ([5]; antibiotic 0.5 ug/mL) was 1155, the “Relative Fluorescence at 4 hrs.” value ([5]; antibiotic 1 ug/mL) was 1539 and the “Relative Fluorescence at 4 hrs.” value ([5]; antibiotic 2 ug/mL) was 1183. For the same compound, the “Relative Fluorescence at 4 hrs.” value ([5]; antibiotic 4 ug/mL) was 1170, the “Relative Fluorescence at 4 hrs.” value ([5]; antibiotic 8 ug/mL) was 1194 and the “susceptibility of E. coli” value [6, 9] was “resistant”. The “Relative Fluorescence at 4 hrs.” value ([6]; antibiotic 0.5 ug/mL) was 7902, the “Relative Fluorescence at 4 hrs.” value ([6]; antibiotic 1 ug/mL) was 7983 and the “Relative Fluorescence at 4 hrs.” value ([6]; antibiotic 2 ug/mL) was 7161. The “Relative Fluorescence at 4 hrs.” value ([6]; antibiotic 4 ug/mL) was 7598, the “Relative Fluorescence at 4 hrs.” value ([6]; antibiotic 8 ug/mL) was 6469 and the “susceptibility of E. coli” value [7, 9] was “resistant”. For the same compound, the “Relative Fluorescence at 4 hrs.” value ([7]; antibiotic 0.5 ug/mL) was 183, the “Relative Fluorescence at 4 hrs.” value ([7]; antibiotic 1 ug/mL) was 197 and the “Relative Fluorescence at 4 hrs.” value ([7]; antibiotic 2 ug/mL) was 195. The “Relative Fluorescence at 4 hrs.” value ([7]; antibiotic 4 ug/mL) was 160, the “Relative Fluorescence at 4 hrs.” value ([7]; antibiotic 8 ug/mL) was 161 and the MIC [8] was 8 µg/mL (≈ 18.9 µM).
